{"source": "patent US10597398B2", "about": "“Suppression and regeneration promoting effect of low molecular weight compound on cancer and fibrosis” (NATIONAL UNIVERSITY CORPORATION TOTTORI UNIVERSITY, priority 2015, dated 2020)", "key": {"[1]": {"system": "cancer stem cells (CD44) in HuH-7 cells", "experiment": "Inhibitory effect on cancer stem cells (FCM analysis of CD44), Example 6.4", "type": "cell-based, human", "settings": "CD44, day 2, IC-2 50 μM, 5-FU 0.5 μM, compared with control 1% DMSO", "protocol": "CD44, a cancer stem cell marker, was used as an indicator to examine an inhibitory effect of IC-2 on cancer stem cells. First, 70 to 90% confluent HuH-7 cells were harvested and seeded at 1.5×10^6 cells per 10-cm cell culture dish. After 15 h, the cells were treated with hexachlorophene (15 μM), ICG-001 (15 μM), PKF118-310 (5 μM), IC-2 (50 μM), or 5-FU (0.5 μM), and the mixture was cultured at 37° C. Each control sample used was 1% DMSO, a solvent for each compound or the anti-cancer drug. Day 2 after the drug treatment, the cells were harvested from each culture dish. The cells were centrifuged at 1000 rpm and at 4° C. for 5 min to remove a supernatant and were then washed twice with 1 mL of 0.5% FBS/2 mM EDTA/PBS. Next, the cells were suspended in 500 μL of 5% BSA/0.5% FBS/2 mM EDTA/PBS for blocking at 4° C. for 15 min.\nThen, 5 μL of a mouse anti-human CD44 monoclonal antibody (156-3C11, Cell Signaling Technology Inc., Danvers, Mass.) was added to 500 μL of the cell suspension. The mixture was resuspended and subjected to a primary antibody reaction in a dark room at 4° C. for 10 min. After that, the cells were washed 3 times with 1 mL of PBS. Subsequently, 1.0 μg of Alexa Fluor 488-labeled IgG (H+L) (Life Technologies Corp., Carlsbad, Calif.) was added and the mixture was suspended. Then, a secondary antibody reaction was carried out in a dark room at 4° C. for 10 min. […]"}, "liver fibrosis": {"system": "liver fibrosis", "experiment": "Carbon tetrachloride-induced fibrosis model mouse (Sirius Red staining)", "type": "in vivo, C57BL/6 male mice", "settings": "carbon tetrachloride 8 weeks, drug for last 4 weeks, IC-2 10.6 mg/kg i.p. 3 times a week, vs vehicle group", "protocol": "To induce anesthesia, 1-mL disposable syringe with a 27-G needle was used to intraperitoneally inject, into a mouse, 1 μL/g body weight of a systemic anesthetic somnopentyl (Kyoritsuseiyaku Corporation, Tokyo).\nThe liver tissue sample, as so resected, was fixed in 4% paraformaldehyde (Nacalai tesque, Kyoto) at room temperature for 16 h, embedded in paraffin, and sectioned with a microtome to prepare tissue sections, which were then stained by using a Picosirius Red Stain Kit (Polysciences Inc., Warrington, Pa.) in accordance with the attached protocol. After that, a BZ-9000 (KEYENCE CORPORATION, Osaka) was used to take 10 photographs of light-field enlarged images (100×) per tissue sample. The ratio of the red-stained fiber area to the total tissue area of each photographed image was quantified to calculate a fibrosis-positive area ratio.\nSeven-week-old C57BL/6 male mice (Japan SLC, Inc., Shizuoka) were subjected to 1-week preparatory rearing and healthy ones were then used. The mice were housed in animal cages at a room temperature of 22±1° C. and a humidity of 50±5% throughout the preparatory rearing and experimental period and were given ad libitum access to food and water.\nA microsyringe (ITO CORPORATION, Shizuoka) was used to intraperitoneally administer 0.2 ml/kg of carbon tetrachloride (CCl4; Wako Pure Chemical Industries, Ltd.) 3 times a week for 4, 6, or 8 weeks. […]"}}}
{"smiles": "O=C1C(Cc2ccccc2)N2C(=O)CCN(C(=O)NCc3ccccc3)C2CN1Cc1cccc2ccccc12", "note": "(centres unmarked) [IC-2]", "values": [{"measurement": "number of cancer stem cells", "setting": "[1]", "result": "significant reduction in the number of cancer stem cells"}, {"measurement": "fibrosis area (Sirius Red staining)", "setting": "liver fibrosis", "result": "decrease more than that of the vehicle group"}]}
